Measured values taken from patent US9221796B2, “Selective NR2B antagonists” (BRISTOL-MYERS SQUIBB COMPANY, priority 2014, dated 2015).

Target: NR2B-subtype NMDA receptors (Rattus norvegicus (Rat), UniProt P35439+Q00960)
Assay: Radioligand binding assay (3H Ro 25-6981 competition, forebrain membranes)
Details: 3H Ro 25-6981 (4 nM), read-out: NR2B Binding Ki
Procedure, shortened: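 Rat forebrain membranes competed against [3H]Ro 25-6981 for 1 hr at room temperature, then filtered onto PEI-treated GF/B plates and counted by scintillation. CPM converted to % inhibition, concentration-response curves fitted, Ki derived from at least two experiments.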

Chain of NR2B-subtype NMDA receptors (Q00960 27-1482, other chains not shown): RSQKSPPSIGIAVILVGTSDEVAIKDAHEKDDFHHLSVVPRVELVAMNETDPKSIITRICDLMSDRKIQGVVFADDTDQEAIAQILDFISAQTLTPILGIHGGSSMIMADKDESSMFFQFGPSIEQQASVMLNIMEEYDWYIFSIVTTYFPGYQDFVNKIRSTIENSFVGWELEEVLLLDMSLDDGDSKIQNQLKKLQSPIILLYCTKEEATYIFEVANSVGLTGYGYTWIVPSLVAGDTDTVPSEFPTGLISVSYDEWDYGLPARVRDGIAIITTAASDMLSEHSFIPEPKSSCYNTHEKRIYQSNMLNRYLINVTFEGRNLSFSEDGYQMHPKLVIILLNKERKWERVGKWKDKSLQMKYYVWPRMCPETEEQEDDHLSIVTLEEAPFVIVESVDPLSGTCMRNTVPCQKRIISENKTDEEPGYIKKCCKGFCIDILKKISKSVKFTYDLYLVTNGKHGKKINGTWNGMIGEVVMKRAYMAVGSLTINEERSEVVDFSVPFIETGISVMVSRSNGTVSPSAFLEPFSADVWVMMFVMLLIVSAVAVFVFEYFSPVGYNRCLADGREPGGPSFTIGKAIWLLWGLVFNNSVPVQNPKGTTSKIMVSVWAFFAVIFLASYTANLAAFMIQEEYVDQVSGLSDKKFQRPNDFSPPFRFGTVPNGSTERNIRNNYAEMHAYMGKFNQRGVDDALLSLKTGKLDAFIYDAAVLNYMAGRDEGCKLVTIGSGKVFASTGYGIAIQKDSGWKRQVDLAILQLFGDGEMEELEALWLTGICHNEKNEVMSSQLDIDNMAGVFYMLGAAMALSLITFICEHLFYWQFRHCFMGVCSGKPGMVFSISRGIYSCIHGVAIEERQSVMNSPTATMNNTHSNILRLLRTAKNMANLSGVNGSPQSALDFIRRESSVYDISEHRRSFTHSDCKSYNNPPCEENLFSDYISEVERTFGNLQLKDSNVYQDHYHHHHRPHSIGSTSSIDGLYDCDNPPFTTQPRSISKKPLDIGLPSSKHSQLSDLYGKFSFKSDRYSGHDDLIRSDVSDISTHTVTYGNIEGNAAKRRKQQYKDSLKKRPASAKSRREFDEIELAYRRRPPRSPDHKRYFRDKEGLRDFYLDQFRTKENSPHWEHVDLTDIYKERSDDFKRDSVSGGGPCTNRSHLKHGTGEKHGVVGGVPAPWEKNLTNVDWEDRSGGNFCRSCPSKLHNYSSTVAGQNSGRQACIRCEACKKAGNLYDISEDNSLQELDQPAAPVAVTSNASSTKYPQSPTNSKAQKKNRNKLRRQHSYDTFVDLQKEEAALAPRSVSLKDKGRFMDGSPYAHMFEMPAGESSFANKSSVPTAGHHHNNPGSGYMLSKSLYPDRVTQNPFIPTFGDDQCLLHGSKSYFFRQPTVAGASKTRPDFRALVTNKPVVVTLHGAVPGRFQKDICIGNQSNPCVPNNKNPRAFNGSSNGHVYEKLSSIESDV

Row | Compound | Ki [nM]
1 | O=C1[C@@H](N2CCC(c3ccc(O)cc3)C(F)(F)C2)CCN1Cc1ccc(Cl)c(F)c1 (stereo partly drawn) [Example 96, P-1, (3S)-1-(4-Chloro-3-fluorobenzyl)-3-(3,3-difluoro-4-(4-hydroxyphenyl)piperidin-1-yl)pyrrolidin-2-one] | 490
2 | Cc1ccc(CN2CC[C@@H](N3CC[C@@H](c4ccc(O)cc4)[C@H](F)C3)C2=O)cc1F [Example 47, P-3, (R)-3-((3S,4S)-3-fluoro-4-(4-hydroxyphenyl)piperidin-1-yl)-1-(3-fluoro-4-methylbenzyl)pyrrolidin-2-one] | 3.8
3 | O=C1[C@H](N2CCC(c3ccc(O)cc3)C(F)(F)C2)CCN1Cc1ccc(F)c(F)c1 (single isomer, unassigned) [Example 108, P-2] | 15
4 | O=C1C(N2CCCC(c3ccc(O)cc3)CC2)CCN1Cc1ccc(F)cc1 (stereo not shown) [Example 35, 1-(4-Fluorobenzyl)-3-(4-(4-hydroxyphenyl)azepan-1-yl)pyrrolidin-2-one] | 17
5 | O=C1[C@@H](N2CCC(c3ccc(O)cc3)CC2)CCN1Cc1ccc(O)cc1 [Example 25a, (S)-1-(4-Hydroxybenzyl)-3-(4-(4-hydroxyphenyl)piperidin-1-yl)pyrrolidin-2-one] | 1200
6 | O=C1C(N2CC[C@H](c3ccc(O)cc3)[C@@H](F)C2)CCN1Cc1ccc(Cl)c(Cl)c1 (stereo partly drawn) [Example 86, 1-(3,4-Dichlorobenzyl)-3-((3R,4R)-3-fluoro-4-(4-hydroxyphenyl)-piperidin-1-yl)pyrrolidin-2-one] | 78
7 | O=C1C(N2CCC(c3ccc(O)cc3)CC2)CCCN1Cc1ccccc1 (stereo not shown) [Example 40, 1′-Benzyl-4-(4-hydroxyphenyl)-[1,3′-bipiperidin]-2′-one] | 480
8 | O=C1[C@@H](N2CC[C@@H](c3ccc(O)c(F)c3)[C@H](F)C2)CCN1Cc1ccc(C(F)F)cc1 [Example 117, P-1, (S)-1-(4-(difluoromethyl)benzyl)-3-((3S,4S)-3-fluoro-4-(3-fluoro-4-hydroxyphenyl)piperidin-1-yl)pyrrolidin-2-one] | 79
9 | O=C1[C@H](N2CCC(c3ccc(O)cc3)CC2)CCN1Cc1ccccc1 [Example 13b, (R)-1-Benzyl-3-(4-(4-hydroxyphenyl)piperidin-1-yl)pyrrolidin-2-one] | 1.6
10 | Cc1ccc(CN2CC[C@H](N3CC[C@H](c4ccc(O)cc4)[C@@H](F)C3)C2=O)cc1F [Example 47, P-2, (S)-3-((3R,4R)-3-fluoro-4-(4-hydroxyphenyl)piperidin-1-yl)-1-(3-fluoro-4-methylbenzyl)pyrrolidin-2-one] | 470
11 | O=C1[C@@H](N2CCC(c3ccc(O)cc3)C(F)(F)C2)CCN1Cc1ccc(Cl)c(F)c1 (single isomer, unassigned) [Example 107, P-1] | 1200
12 | C[C@@H](c1ccc(F)cc1)N1CCC(N2CCC(c3ccc(O)cc3)C(F)(F)C2)C1=O (single isomer, unassigned) [Example 56, P-2] | 1400
13 | Cc1ccc(CN2CC[C@@H](N3CC[C@@H](c4ccc(O)c(F)c4)[C@H](F)C3)C2=O)cc1 [Example 115, (R)-3-((3S,4S)-3-fluoro-4-(3-fluoro-4-hydroxyphenyl)piperidin-1-yl)-1-(4-methylbenzyl)pyrrolidin-2-one] | 2.7
14 | O=C1[C@H](N2CC[C@H](c3ccc(O)cc3)[C@@H](F)C2)CCN1Cc1ccc(C(F)(F)F)cc1 [Example 88, (R)-3-((3R,4R)-3-Fluoro-4-(4-hydroxyphenyl)piperidin-1-yl)-1-(4-(trifluoromethyl)benzyl)-pyrrolidin-2-one] | 5.3
15 | O=C1[C@H](N2CCC(c3ccc(O)cc3)C(F)(F)C2)CCN1Cc1ccccc1 (stereo partly drawn) [Example 102, P-2, (3R)-1-Benzyl-3-(3,3-difluoro-4-(4-hydroxyphenyl)piperidin-1-yl)pyrrolidin-2-one] | 30
16 | O=C1[C@@H](N2CC[C@@H](c3ccc(O)cc3)[C@H](F)C2)CCN1Cc1ccc(C(F)(F)F)cc1 [Example 71, (S)-3-((3S,4S)-3-Fluoro-4-(4-hydroxyphenyl)piperidin-1-yl)-1-(4-(trifluoromethyl)-benzyl)pyrrolidin-2-one] | 560
17 | O=C1C(N2CCC(c3ccc(O)cc3)C(O)C2)CCN1Cc1ccc(F)cc1 (single isomer, unassigned) [Example 9d, 1-(4-Fluorobenzyl)-3-(3-hydroxy-4-(4-hydroxyphenyl)piperidin-1-yl)pyrrolidin-2-one] | 160
18 | O=C1C(N2CCC(c3ccc(O)cc3)CC2)CCN1Cc1ccccc1 (stereo not shown) [Example 12, 1-Benzyl-3-(4-(4-hydroxyphenyl)piperidin-1-yl)pyrrolidin-2-one] | 4
19 | O=C1C(N2CCC(c3ccc(O)cc3)C(O)C2)CCN1Cc1ccc(F)cc1 (single isomer, unassigned) [Example 9c, 1-(4-Fluorobenzyl)-3-(3-hydroxy-4-(4-hydroxyphenyl)-piperidin-1-yl)pyrrolidin-2-one] | 5000

Row | Compound | Ki [nM]
20 | O=C1C(N2CC[C@H](c3ccc(O)cc3)[C@@H](F)C2)CCN1Cc1ccc(OC(F)F)cc1 (stereo partly drawn) [Example 78, 1-(4-(Difluoromethoxy)benzyl)-3-((3R,4R)-3-fluoro-4-(4-hydroxyphenyl)piperidin-1-yl)pyrrolidin-2-one] | 190
21 | O=C1C(N2CCC(c3ccc(O)cc3)C(F)(F)C2)CCN1Cc1ccc(C(F)(F)F)cc1 (stereo in doubt) [Example 99, P-2, (3S)-3-(3,3-Difluoro-4-(4-hydroxyphenyl)piperidin-1-yl)-1-(4-(trifluoromethyl)benzyl)-pyrrolidin-2-one] | 22
22 | O=C1[C@H](N2CC[C@H](c3ccc(O)cc3)[C@@H](F)C2)CCN1Cc1ccc(F)cc1 [Example 48, P-4] | 13
23 | O=C1[C@@H](N2CCC(c3ccc(O)cc3)CC2)CCN1Cc1ccccc1 [Example 13a, (S)-1-Benzyl-3-(4-(4-hydroxyphenyl)piperidin-1-yl)pyrrolidin-2-one] | 41
24 | Cc1ccc(CN2CCC(N3CCCC(c4ccc(O)cc4)CC3)C2=O)cc1 (stereo not shown) [Example 36, 3-(4-(4-Hydroxyphenyl)azepan-1-yl)-1-(4-methylbenzyl)-pyrrolidin-2-one] | 34
25 | O=C1C(N2CC[C@@H](c3ccc(O)cc3)[C@H](F)C2)CCN1Cc1ccc(OC(F)F)cc1 (stereo partly drawn) [Example 61, 1-(4-(Difluoromethoxy)benzyl)-3-((3S,4S)-3-fluoro-4-(4-hydroxyphenyl)piperidin-1-yl)pyrrolidin-2-one] | 46
26 | O=C1C(N2CCC(c3ccc(O)c(F)c3)CC2)CCN1Cc1ccccc1 (stereo not shown) [Example 30, 1-Benzyl-3-(4-(3-fluoro-4-hydroxyphenyl)piperidin-1-yl)pyrrolidin-2-one] | 4.7
27 | C[C@@H](c1ccc(F)cc1)N1CC[C@@H](N2CC[C@H](c3ccc(O)cc3)[C@@H](F)C2)C1=O [Example 50, P-2, (R)-3-((3R,4R)-3-fluoro-4-(4-hydroxyphenyl)piperidin-1-yl)-1-((S)-1-(4-fluorophenyl)ethyl)pyrrolidin-2-one] | 890
28 | O=C1[C@H](N2CC[C@H](c3ccc(O)cc3)[C@@H](F)C2)CCN1Cc1ccc(Cl)c(F)c1 [Example 83, (R)-1-(4-Chloro-3-fluorobenzyl)-3-((3R,4R)-3-fluoro-4-(4-hydroxyphenyl)piperidin-1-yl)pyrrolidin-2-one] | 5
29 | O=C1[C@@H](N2CCC(c3ccc(O)cc3)CC2)CCN1Cc1ccc(F)cc1 [Example 2a, (S)-1-(4-Fluorobenzyl)-3-(4-(4-hydroxyphenyl)-piperidin-1-yl)pyrrolidin-2-one] | 740
30 | Cc1ccc(CN2CCC(N3CCC(c4ccc(O)cc4)CC3)C2=O)cc1F (stereo not shown) [Example 19, 1-(3-Fluoro-4-methylbenzyl)-3-(4-(4-hydroxyphenyl)piperidin-1-yl)pyrrolidin-2-one] | 3.9
31 | Cc1cc(O)ccc1C1CCN(C2CCN(Cc3ccccc3)C2=O)CC1 (stereo not shown) [Example 29, 1-Benzyl-3-(4-(4-hydroxy-2-methylphenyl)piperidin-1-yl)pyrrolidin-2-one] | 78
32 | O=C1[C@@H](N2CC[C@H](c3ccc(O)cc3)[C@@H](F)C2)CCN1Cc1ccc(Cl)cc1 [Example 80, (S)-1-(4-Chlorobenzyl)-3-((3R,4R)-3-fluoro-4-(4-hydroxyphenyl)piperidin-1-yl)pyrrolidin-2-one] | 560
33 | Cc1ccc(CN2CC[C@@H](N3CC[C@H](c4ccc(O)c(F)c4)[C@@H](F)C3)C2=O)cc1F [Example 45, P-4, (R)-3-((3R,4R)-3-fluoro-4-(3-fluoro-4-hydroxyphenyl)piperidin-1-yl)-1-(3-fluoro-4-methylbenzyl)pyrrolidin-2-one] | 2.5
34 | Cc1ccc(N2CC[C@@H](N3CC[C@H](c4ccc(O)cc4)[C@@H](F)C3)C2=O)cc1F [Example 49, P-2, (R)-3-((3R,4R)-3-fluoro-4-(4-hydroxyphenyl)piperidin-1-yl)-1-(3-fluoro-4-methylphenyl)pyrrolidin-2-one] | 73
35 | O=C1C(N2CCC(c3ccc(O)cc3)C(F)(F)C2)CCN1Cc1ccc(C(F)(F)F)cc1 (single isomer, unassigned) [Example 53, P-1, 3-(3,3-Difluoro-4-(4-hydroxyphenyl)piperidin-1-yl)-1-(4-(trifluoromethyl)-benzyl)pyrrolidin-2-one] | 1100
36 | Cc1ccccc1CN1CCC(N2CC[C@H](c3ccc(O)cc3)[C@@H](F)C2)C1=O (stereo partly drawn) [Example 76, 3-((3R,4R)-3-Fluoro-4-(4-hydroxyphenyl)piperidin-1-yl)-1-(2-methylbenzyl)pyrrolidin-2-one] | 33
37 | O=C1[C@H](N2CCC(c3ccc(O)cc3)C(F)(F)C2)CCN1Cc1ccc(Cl)cc1 (stereo partly drawn) [Example 106, P-2, (3R)-1-(4-Chlorobenzyl)-3-(3,3-difluoro-4-(4-hydroxyphenyl)piperidin-1-yl)pyrrolidin-2-one] | 4.6
